Values quoted from earlier work as cited in publication PMC9825171 (Nucleic Acids Research, 2022).

System: interactions of both NICD and SHARP with RBPJ
Conditions: cellular assays; ref [63]

SMILES: Cn1nccc1-c1ccc(C(N)=O)c(Oc2ccccc2F)c1 [RIN1]
- effect on RBPJ-coregulator interactions, in words: block the interactions of both NICD and SHARP with RBPJ
